Test system: HCV genotype-1a variant with glutamine 30 changed to glutamate in the NS5A protein
Format: cell-based
Settings: test compound titrated with BMS-790052 fixed at 200 nM; genotype 1a Q30E replicon
Source text: The NS5A synergistic inhibitory effect of test compounds can be determined using various amounts of an NS5A-targeting compound with titration of a second compound of interest. […] In one embodiment, the HCV genotype strain can be genotype 1a containing a change at amino acid 30 of the NS5A protein consisting of glutamine to glutamate. The test compound can be chosen from compounds listed above or from others present in the literature.

SMILES	Fold-Synergistic 1a (Q30E)
CC(C)[C@H](NC(=O)Cc1ccccc1F)c1ncc(-c2ccc(-c3ccc(-c4cnc([C@@H](NC(=O)Cc5ccccc5F)C(C)C)[nH]4)cc3)cc2)[nH]1 [Compound S-37]	>100 fold
COC(=O)N1C2CCC1(C(=O)N[C@H](c1nc(-c3ccc(-c4ccc(-c5c[nH]c([C@@H](NC(=O)C67CCC(CC6)N7C(=O)OC)C(C)(C)C)n5)cc4)cc3)c[nH]1)C(C)(C)C)CC2.O=C(O)C(F)(F)F.O=C(O)C(F)(F)F [Compound W-117]	>100 fold
CC(C)[C@H](NC(=O)C1(c2ccc(F)cc2)CCC1)c1ncc(-c2ccc(-c3ccc(-c4cnc([C@@H](NC(=O)C5(c6ccc(F)cc6)CCC5)C(C)C)[nH]4)cc3)cc2)[nH]1 [Compound P-82]	>100 fold
COCC(=O)NC1(C(=O)N[C@H](c2nc(-c3ccc(-c4ccc(-c5c[nH]c([C@@H](NC(=O)C6(NC(=O)COC)CCCCC6)C(C)(C)C)n5)cc4)cc3)c[nH]2)C(C)(C)C)CCCCC1 [Compound W-263]	>100 fold
CC(O)(CF)C(=O)N[C@H](c1nc(-c2ccc(-c3ccc(-c4c[nH]c([C@@H](NC(=O)C(C)(O)CF)C(C)(C)C)n4)cc3)cc2)c[nH]1)C(C)(C)C (single isomer, unassigned) [Compound N-139C]	>100 fold
CC(C)[C@H](NC(=O)Cc1cccs1)c1ncc(-c2ccc(-c3ccc(-c4cnc([C@@H](NC(=O)Cc5cccs5)C(C)C)[nH]4)cc3)cc2)[nH]1 [Compound P-78]	>100 fold
CC(C)(C)[C@H](NC(=O)C1(C2(O)CCNCC2)CCC1)c1ncc(-c2ccc(-c3ccc(-c4cnc([C@@H](NC(=O)C5(C6(O)CCOCC6)CCC5)C(C)(C)C)[nH]4)cc3)cc2)[nH]1 [Compound B84]	>100 fold
CC(C)[C@H](NC(=O)C(C)(C)C(O)C1CC(F)(F)C1)c1nc(-c2ccc(-c3ccc(-c4c[nH]c([C@@H](NC(=O)C(C)(C)C(O)C5CC(F)(F)C5)C(C)C)n4)cc3)cc2)c[nH]1 (single isomer, unassigned) [Compound N-145B]	>100 fold
CC(C)(C)[C@H](NS(=O)(=O)C1CCCCC1)c1nc(-c2ccc(-c3ccc(-c4c[nH]c([C@@H](NS(=O)(=O)C5CCCCC5)C(C)(C)C)n4)cc3)cc2)c[nH]1 [Compound L-118]	>100 fold
CC(O)C(C)(C)C(=O)N[C@H](c1ncc(-c2ccc(-c3ccc(-c4cnc([C@@H](NC(=O)C(C)(C)C(C)O)C(C)(C)C)[nH]4)cc3)cc2)[nH]1)C(C)(C)C (single isomer, unassigned) [Compound B78]	>100 fold
CC1(C)CC(C(=O)NC(c2nc(-c3ccc(-c4ccc(-c5c[nH]c(C(NC(=O)C6CC(C)(C)C6)C(C)(C)C)n5)cc4)cc3)c[nH]2)C(C)(C)C)C1 [Compound L-53]	>100 fold
CC(C)[C@H](NC(=O)C1(C(C)O)CC1)c1ncc(-c2ccc(-c3ccc(-c4cnc([C@@H](NC(=O)C5(C(C)O)CC5)C(C)C)n4C)cc3)cc2)n1C (single isomer, unassigned) [Compound B-204]	>10 fold
COC(C)(CO)C(=O)N[C@H](c1nc(-c2ccc(-c3ccc(-c4c[nH]c([C@@H](NC(=O)C(C)(CO)OC)C(C)(C)C)n4)cc3)cc2)c[nH]1)C(C)(C)C (single isomer, unassigned) [Compound W-234]	>10 fold
CC(C)[C@H](NC(=O)C(C)(C)OCC(F)(F)F)c1ncc(-c2ccc(-c3ccc(-c4cnc([C@@H](NC(=O)C(C)(C)OCC(F)(F)F)C(C)C)[nH]4)cc3)cc2)[nH]1 [Compound Y-31]	>100 fold
COc1ccc2c(C(=O)N3CCC[C@H]3c3ncc(-c4ccc(-c5ccc(-c6cnc([C@@H]7CCCN7C(=O)c7nccc8cc(OC)ccc78)[nH]6)cc5)cc4)[nH]3)nccc2c1 [Compound S-198]	>100 fold
CC(C)[C@H](NC(=O)c1cocn1)c1ncc(-c2ccc(-c3ccc(-c4cnc([C@@H](NC(=O)c5cocn5)C(C)C)[nH]4)cc3)cc2)[nH]1 [Compound P-92]	>10 fold
CC(C)[C@H](NC(=O)c1cccc(-c2ccccc2)c1)c1ncc(-c2ccc(-c3ccc(-c4cnc([C@@H](NC(=O)c5cccc(-c6ccccc6)c5)C(C)C)[nH]4)cc3)cc2)[nH]1 [Compound S-17]	>100 fold
CC(C)(C(=O)N[C@H](c1nc(-c2ccc(-c3ccc(-c4c[nH]c([C@@H](NC(=O)C(C)(C)C5CCC(F)(F)CC5)C(C)(C)C)n4)cc3)cc2)c[nH]1)C(C)(C)C)C1CCC(F)(F)CC1 [Compound P-150]	>100 fold
CC(C)(C)C(NC(=O)C1(O)CCCC1)c1nc(-c2ccc(-c3ccc(-c4c[nH]c(C(NC(=O)C5(O)CCCC5)C(C)(C)C)n4)cc3)cc2)c[nH]1 [Compound L-73]	>100 fold

SMILES	Fold-Synergistic 1a (Q30E)
CN1CCN(C(=O)C(=O)N[C@H](c2nc(-c3ccc(-c4ccc(-c5c[nH]c([C@@H](NC(=O)C(=O)N6CCN(C)CC6)C(C)(C)C)n5)cc4)cc3)c[nH]2)C(C)(C)C)CC1 [Compound W-35]	>100 fold
CC(C)(C)[C@H](NS(=O)(=O)N1CCOCC1)c1nc(-c2ccc(-c3ccc(-c4c[nH]c([C@@H](NS(=O)(=O)N5CCOCC5)C(C)(C)C)n4)cc3)cc2)c[nH]1 [Compound L-119]	>100 fold
COc1cccc2c(C(=O)N3[C@@H]4C[C@@H]4C[C@H]3c3ncc(-c4ccc(-c5ccc(-c6cnc([C@@H]7C[C@H]8C[C@H]8N7C(=O)c7nc(Cl)cc8c(OC)cccc78)[nH]6)cc5)cc4)[nH]3)nc(Cl)cc12 [Compound P-49]	>100 fold
CC(C)(C)C(=O)N[C@H](c1ncc(-c2ccc3cc(-c4ccc5nc([C@@H](NC(=O)C(C)(C)C)C(C)(C)C)[nH]c5c4)ccc3c2)[nH]1)C(C)(C)C [Compound B54]	>100 fold
CCCOC(=O)N1CCC[C@H]1c1ncc(-c2ccc(-c3ccc(-c4cnc([C@@H]5CCCN5C(=O)OCCC)[nH]4)cc3)cc2)[nH]1 [Compound S-218]	>10 fold
CC(C)[C@H](NC(=O)c1ccccc1)c1ncc(-c2ccc(-c3ccc(-c4cnc([C@@H](NC(=O)c5ccccc5)C(C)C)[nH]4)cc3)cc2)[nH]1 [Compound S-5]	>100 fold
CC(C)(C)OC(=O)N1C2CCC1(C(=O)N[C@H](c1nc(-c3ccc(-c4ccc(-c5c[nH]c([C@@H](NC(=O)C67CCC(CC6)N7C(=O)OC(C)(C)C)C(C)(C)C)n5)cc4)cc3)c[nH]1)C(C)(C)C)CC2 [Compound W-85]	>100 fold
COC(=O)C1(C(=O)N[C@H](c2nc(-c3ccc(-c4ccc(-c5c[nH]c([C@@H](NC(=O)C6(C(=O)OC)CCCCC6)C(C)(C)C)n5)cc4)cc3)c[nH]2)C(C)(C)C)CCCCC1 [Compound S-273]	>100 fold
CC(C)(C)OC(=O)NC1CCCC(C(=O)NC(c2nc(-c3ccc(-c4ccc(-c5c[nH]c(C(NC(=O)C6CCCC(NC(=O)OC(C)(C)C)C6)C(C)(C)C)n5)cc4)cc3)c[nH]2)C(C)(C)C)C1 (mixture of isomers) [Compound S-266]	>100 fold
CC(C)[C@H](NC(=O)C1(C(C)O)CC1)c1ncc(-c2ccc(-c3ccc(-c4cnc([C@@H](NC(=O)C5(C(C)O)CC5)C(C)C)n4C)cc3)cc2)n1C (single isomer, unassigned) [Compound B-202]	>10 fold
CC(C)(C)C(NC(=O)C1CC(=O)N(c2ccccc2O)C1)c1nc(-c2ccc(-c3ccc(-c4c[nH]c(C(NC(=O)C5CC(=O)N(c6ccccc6O)C5)C(C)(C)C)n4)cc3)cc2)c[nH]1 (mixture of isomers) [Compound S-265]	>100 fold
CC(C)(C(=O)N[C@H](c1nc(-c2ccc(-c3ccc(-c4c[nH]c([C@@H](NC(=O)C(C)(C)C(O)C5CCC(F)(F)CC5)C(C)(C)C)n4)cc3)cc2)c[nH]1)C(C)(C)C)C(O)C1CCC(F)(F)CC1 (single isomer, unassigned) [Compound N-143B]	>100 fold
Cc1cc(-c2ccc(-c3c[nH]c([C@@H](NC(=O)C(C)(C)C)C(C)C)n3)cc2)ccc1-c1c[nH]c([C@@H](NC(=O)C(C)(C)C)C(C)C)n1 [Compound N-77]	>100 fold
CC1(O)CCC(C(=O)N[C@H](c2nc(-c3ccc(-c4ccc(-c5c[nH]c([C@@H](NC(=O)C6CCC(C)(O)CC6)C(C)(C)C)n5)cc4)cc3)c[nH]2)C(C)(C)C)CC1 (some centres unmarked) [Compound W-175]	>100 fold
COc1ccccc1C(O)C(C)(C)C(=O)N[C@H](c1nc(-c2ccc(-c3ccc(-c4c[nH]c([C@@H](NC(=O)C(C)(C)C(O)c5ccccc5OC)C(C)(C)C)n4)cc3)cc2)c[nH]1)C(C)(C)C (single isomer, unassigned) [Compound N-125C]	>100 fold
CC(C)(C)[C@H](NC(=O)C1(C(F)(F)F)CC1)c1nc(-c2ccc(-c3ccc(-c4c[nH]c([C@@H](NC(=O)C5(C(F)(F)F)CC5)C(C)(C)C)n4)cc3)cc2)c[nH]1 [Compound P-30]	>100 fold
CC(C)(C)[C@H](NC(=O)[C@@H]1C[C@@H](F)CN1)c1nc(-c2ccc(-c3ccc(-c4c[nH]c([C@@H](NC(=O)[C@@H]5C[C@@H](F)CN5)C(C)(C)C)n4)cc3)cc2)c[nH]1 [Compound W-101, (2S,2'S,4R,4′R)—N,N′-((1S,1′S)-(4,4′-([1,1′-biphenyl]-4,4′-diyl)bis(1H-imidazole-4,2-diyl))bis(2,2-dimethylpropane-1,1-diyl))bis(4-fluoropyrrolidine-2-carboxamide)]	>10 fold
CC(C)[C@H](NC(=O)c1cccc2ccccc12)c1ncc(-c2ccc(-c3ccc(-c4cnc([C@@H](NC(=O)c5cccc6ccccc56)C(C)C)[nH]4)cc3)cc2)[nH]1 [Compound S-86]	>100 fold
CC(C)[C@H](NC(=O)c1ccco1)c1ncc(-c2ccc(-c3ccc(-c4cnc([C@@H](NC(=O)c5ccco5)C(C)C)[nH]4)cc3)cc2)[nH]1 [Compound S-8]	>100 fold

Source: patent US20160158200A1, “Combinations of Hepatitis C Virus Inhibitors” (priority 2013, published 2016)
